Assay results from patent US20240343722A1 (VIFOR (INTERNATIONAL) AG, priority 2021, published 2024).

What was measured:
ferroportin (Fpn) [1] = molecular target: T1, ferroportin (Fpn) (Mus musculus, UniProt Q9JHI9); test: Hepcidin Internalization Assay (J774); format: cell-based; details: Average (AVE) IC50 of multiple measurements; inhibition of TMR-hepcidin (25 nM) internalization into J774 cells
T1 construct: endogenous in cells; host or cells: J774 mouse macrophage cell line, induced with Fe(III)NTA
T1 sequence (Q9JHI9 1-570): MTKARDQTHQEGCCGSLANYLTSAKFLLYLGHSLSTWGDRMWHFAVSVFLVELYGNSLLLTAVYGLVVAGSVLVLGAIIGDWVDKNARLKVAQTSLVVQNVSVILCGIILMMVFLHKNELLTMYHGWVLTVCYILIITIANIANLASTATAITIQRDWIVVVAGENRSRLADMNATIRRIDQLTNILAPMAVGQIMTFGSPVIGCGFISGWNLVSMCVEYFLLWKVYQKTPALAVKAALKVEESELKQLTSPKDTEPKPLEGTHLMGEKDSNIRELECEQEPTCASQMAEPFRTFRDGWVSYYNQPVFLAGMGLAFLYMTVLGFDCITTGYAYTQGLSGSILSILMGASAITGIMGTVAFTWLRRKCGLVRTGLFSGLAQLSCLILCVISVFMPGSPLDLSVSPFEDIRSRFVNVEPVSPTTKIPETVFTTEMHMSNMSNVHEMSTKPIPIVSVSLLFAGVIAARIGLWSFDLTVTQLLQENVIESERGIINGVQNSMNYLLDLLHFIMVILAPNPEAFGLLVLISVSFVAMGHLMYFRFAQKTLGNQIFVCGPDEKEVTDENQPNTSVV
In short: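 Mouse J774 cells; Fpn inhibition read as reduced internalization of TMR-labelled hepcidin, imaged by fluorescence microscopy with Hoechst 33342 co-stain after fixation. IC50 from Sum(Mean) TMR signal fitted to three- or four-parameter log(inhibitor) vs. response, whichever fit better.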

ferroportin (Fpn) [2] = molecular target: T2, ferroportin (Fpn) (Homo sapiens, UniProt Q9NP59); test: Inhibition of Ferroportin mediated Iron Export Activity in an Iron Response Assay (BLA reporter, HEK-293 cell line #354); format: cell-based; details: HEK-293 cell line #354, BLA reporter blue/green fluorescence ratio, n=37; read-out: EC50 of hepcidin in the iron response assay
T2 construct: expressed in transfected cells; host or cells: HEK-293 cell line #354 (derivative of HEK-293 Tet-ON Advanced)
T2 sequence (Q9NP59 1-571): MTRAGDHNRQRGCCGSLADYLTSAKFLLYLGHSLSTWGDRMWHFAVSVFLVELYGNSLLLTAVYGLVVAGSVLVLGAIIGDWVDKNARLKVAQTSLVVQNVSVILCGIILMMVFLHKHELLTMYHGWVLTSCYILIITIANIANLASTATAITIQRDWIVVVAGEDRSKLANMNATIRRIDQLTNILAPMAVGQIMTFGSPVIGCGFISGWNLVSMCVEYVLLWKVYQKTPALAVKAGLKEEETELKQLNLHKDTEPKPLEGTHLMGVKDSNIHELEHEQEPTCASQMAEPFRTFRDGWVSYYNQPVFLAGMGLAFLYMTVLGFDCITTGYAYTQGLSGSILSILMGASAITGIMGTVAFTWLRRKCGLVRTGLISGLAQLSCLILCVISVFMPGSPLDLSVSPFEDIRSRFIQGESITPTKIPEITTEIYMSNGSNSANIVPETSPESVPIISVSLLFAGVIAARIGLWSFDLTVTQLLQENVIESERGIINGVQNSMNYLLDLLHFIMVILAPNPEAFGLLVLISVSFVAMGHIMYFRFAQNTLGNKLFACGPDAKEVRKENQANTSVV
Source text: Intracellular iron levels are indirectly measured in this assay by monitoring the activity of a beta-lactamase (BLA) reporter gene fused to the human ferritin promoter and the associated iron regulatory element (IRE) contained within the 5′ untranslated region of the ferritin mRNA. Expression of ferroportin (Fpn) in such a cell line leads to iron efflux and lower iron levels as reflected by lower activity of the reporter gene. On the other hand, inhibition of Fpn-mediated iron efflux results in elevated cellular iron levels which is detected as increased reporter gene activity.

| IC50 (ferroportin (Fpn) [1]) | Structure (SMILES) | EC50 (ferroportin (Fpn) [2]) |
| --- | --- | --- |
| 0.026 µM | COc1cccnc1CNC(=O)c1coc(CCNCCc2nc3cc4c(cc3n2CCc2ncco2)OCCO4)n1 [Example 95, N-((3-methoxypyridin-2-yl)methyl)-2-(2-((2-(1-(2-(oxazol-2-yl)ethyl)-6,7-dihydro-1 H-[1,4]dioxino[2′,3′:4,5]benzo[1,2-d]imidazol-2-yl)ethyl)amino)ethyl)oxazole-4-carboxamide] |  |
| 0.223 µM | COCCn1c(C2CN(CCc3nc(C(=O)NCc4ncccc4F)co3)C2)nc2ccccc21 [Example 96, N-((3-fluoropyridin-2-yl)methyl)-2-(2-(3-(1-(2-methoxyethyl)-1H-benzo[d]imidazol-2-yl)azetidin-1-yl)ethyl)oxazole-4-carboxamide] |  |
| 0.089 µM | CN(C)CCn1c(C2CN(CCc3nc(C(=O)NCc4ncccc4F)co3)C2)nc2ccccc21 [Example 97, 2-(2-(3-(1-(2-(dimethylamino)ethyl)-1H-benzo[d]imidazol-2-yl)azetidin-1-yl)ethyl)-N-((3-fluoropyridin-2-yl)methyl)oxazole-4-carboxamide] |  |
|  | CC[C@H](C)[C@@H]1NC(=O)[C@@H](NC(=O)[C@@H](NC(=O)[C@@H]2CCCN2C(=O)[C@H](Cc2ccccc2)NC(=O)[C@H](Cc2c[nH]cn2)NC(=O)[C@@H](NC(=O)[C@@H](N)CC(=O)O)[C@@H](C)O)[C@@H](C)CC)CSSC[C@@H](C(=O)N[C@@H](CCCCN)C(=O)N[C@H](C(=O)O)[C@@H](C)O)NC(=O)[C@@H]2CSSC[C@@H]3NC(=O)[C@@H]4CSSC[C@H](NC(=O)[C@H](Cc5ccccc5)NC1=O)C(=O)N[C@@H](CSSC[C@H](NC(=O)[C@H](CCCCN)NC(=O)[C@H](CO)NC(=O)[C@H](CCCNC(=N)N)NC(=O)[C@H](Cc1c[nH]cn1)NC3=O)C(=O)NCC(=O)N[C@@H](CCSC)C(=O)N2)C(=O)NCC(=O)N4 [hepcidin] | ~0.096 µM |
